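Compound exposure: 48 hours, 5 concentrations, 96-well plates. At the GI50, growth is halved.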 Activity calls are given as the source filed them. Rule as the data show it: active = GI50 up to about 1.1 µM and inactive = higher.
Experiments:
Test in all cases: NCI tumour cell line growth inhibition, 48 h
UACC-62 = test system: UACC-62
SNB-19 = test system: SNB-19
SK-MEL-28 = test system: SK-MEL-28
CAKI-1 = test system: CAKI-1
LOX IMVI = test system: LOX IMVI
UO-31 = test system: UO-31
NCI-H460 = test system: NCI-H460
CCRF-CEM = test system: CCRF-CEM
SK-MEL-5 = test system: SK-MEL-5
MOLT-4 = test system: MOLT-4
IGROV-1 = test system: IGROV-1
SN12C = test system: SN12C
A549 = test system: A549
786-0 = test system: 786-0
EKVX = test system: EKVX
HCC 2998 = test system: HCC 2998

Measured: GI50

O=[N+]([O-])c1ccc(C2SCc3nc4ccccc4n32)cc1 (stereo unspecified)
inactive: UACC-62 32.1 µM | SNB-19 > 100 µM | SK-MEL-28 > 100 µM | CAKI-1 61.4 µM | LOX IMVI 74.1 µM | UO-31 24.8 µM | NCI-H460 > 100 µM | CCRF-CEM 65.9 µM | SK-MEL-5 17.4 µM | MOLT-4 28.1 µM | IGROV-1 19.8 µM | SN12C 56.1 µM | A549 50.4 µM | 786-0 > 100 µM | EKVX 44.3 µM

COc1ccc(OC)c2c1CC(C(=O)O)(C(=O)O)CC2=O
inactive: UACC-62 > 100 µM | SNB-19 > 100 µM | SK-MEL-28 > 100 µM | CAKI-1 > 100 µM | LOX IMVI > 100 µM | UO-31 > 100 µM | HCC 2998 > 100 µM | SK-MEL-5 > 100 µM | MOLT-4 > 100 µM | IGROV-1 > 100 µM | SN12C > 100 µM | A549 > 100 µM | 786-0 > 100 µM | EKVX > 100 µM

CC(C)N(C(=O)C12C3C4C1C1C4(C#N)C3C12C#N)C(C)C (stereo unspecified)
inactive: UACC-62 > 100 µM | SNB-19 > 100 µM | SK-MEL-28 > 100 µM | CAKI-1 > 100 µM | UO-31 > 100 µM | NCI-H460 > 100 µM | CCRF-CEM > 100 µM | HCC 2998 > 100 µM | SK-MEL-5 > 100 µM | MOLT-4 > 100 µM | IGROV-1 > 100 µM | SN12C > 100 µM | A549 > 100 µM | 786-0 > 100 µM | EKVX > 100 µM

CC(=O)N/C(=C\c1ccccc1/C=C(\NC(C)=O)c1nc2cc(C)c(C)cc2[nH]1)c1nc2cc(C)c(C)cc2[nH]1
inactive: UACC-62 15.6 µM | SNB-19 6.81 µM | SK-MEL-28 7.43 µM | CAKI-1 11.5 µM | UO-31 3.22 µM | NCI-H460 26.8 µM | CCRF-CEM 26.7 µM | SK-MEL-5 17.1 µM | MOLT-4 20.3 µM | IGROV-1 26.5 µM | SN12C 17.1 µM | A549 28 µM | 786-0 18.7 µM | EKVX 12.3 µM

C=CCC12CC(=O)CCC1CC(=O)C2 (stereo unspecified)
inactive: UACC-62 > 100 µM | SNB-19 > 100 µM | SK-MEL-28 > 100 µM | CAKI-1 > 100 µM | UO-31 > 100 µM | NCI-H460 > 100 µM | CCRF-CEM > 100 µM | HCC 2998 > 100 µM | SK-MEL-5 > 100 µM | MOLT-4 > 100 µM | IGROV-1 > 100 µM | SN12C > 100 µM | A549 > 100 µM | 786-0 > 100 µM

CCOC(=O)C1=C(C)N(NC(=O)OC)C2(N)N(NC(=O)OC)C(C)=C(C(=O)OCC)C12C#N (stereo unspecified)
inactive: UACC-62 > 100 µM | SNB-19 > 100 µM | SK-MEL-28 > 100 µM | CAKI-1 > 100 µM | LOX IMVI > 100 µM | UO-31 > 100 µM | NCI-H460 > 100 µM | HCC 2998 > 100 µM | SK-MEL-5 > 100 µM | MOLT-4 > 100 µM | IGROV-1 > 100 µM | SN12C > 100 µM | A549 > 100 µM | 786-0 > 100 µM | EKVX > 100 µM

COc1ccc(C(=O)C(C(=O)CCC(=O)Nc2cccc(C(F)(F)F)c2)c2ccccc2)cc1 (stereo unspecified)
inactive: UACC-62 91.8 µM | SNB-19 > 100 µM | SK-MEL-28 > 100 µM | CAKI-1 > 100 µM | UO-31 55.1 µM | NCI-H460 > 100 µM | CCRF-CEM 46.8 µM | HCC 2998 > 100 µM | SK-MEL-5 33.2 µM | MOLT-4 43.1 µM | IGROV-1 > 100 µM | SN12C > 100 µM | A549 65.9 µM | 786-0 > 100 µM | EKVX > 100 µM

c1ccc(/N=c2\snc3scc(-c4ccccc4)n23)cc1
inactive: UACC-62 30.1 µM | SNB-19 39.2 µM | SK-MEL-28 41 µM | CAKI-1 49.5 µM | LOX IMVI 34.4 µM | UO-31 27.6 µM | CCRF-CEM 43.8 µM | HCC 2998 44.1 µM | SK-MEL-5 24.5 µM | MOLT-4 29.3 µM | IGROV-1 41.8 µM | SN12C 44.6 µM | A549 37.5 µM | 786-0 50.5 µM | EKVX 90.2 µM

O=C(c1ccccc1)c1ccc2cccc(OC3OC(CO)C(O)C(O)C3O)c2n1 (stereo unspecified)
inactive: UACC-62 > 100 µM | SNB-19 > 100 µM | SK-MEL-28 > 100 µM | CAKI-1 > 100 µM | LOX IMVI > 100 µM | UO-31 > 100 µM | NCI-H460 74.6 µM | HCC 2998 > 100 µM | SK-MEL-5 > 100 µM | MOLT-4 > 100 µM | IGROV-1 > 100 µM | SN12C > 100 µM | A549 > 100 µM | 786-0 > 100 µM | EKVX > 100 µM

COc1ccc(C2S/C(=C\c3ccc(O)cc3)C(=O)N2NC(=O)Cc2ccccc2)cc1 (stereo unspecified)
inactive: UACC-62 > 100 µM | SK-MEL-28 > 100 µM | CAKI-1 > 100 µM | LOX IMVI > 100 µM | UO-31 > 100 µM | NCI-H460 > 100 µM | CCRF-CEM > 100 µM | SK-MEL-5 > 100 µM | MOLT-4 > 100 µM | IGROV-1 > 100 µM | SN12C > 100 µM | A549 > 100 µM | 786-0 > 100 µM

CCNC1=Nc2ccccc2-n2c(nn3nc4ccccc4c23)N1CC
inactive: UACC-62 > 100 µM | SNB-19 > 100 µM | SK-MEL-28 94.2 µM | LOX IMVI > 100 µM | NCI-H460 > 100 µM | CCRF-CEM 80 µM | SK-MEL-5 > 100 µM | MOLT-4 30.2 µM | IGROV-1 > 100 µM | SN12C 77.4 µM | A549 > 100 µM | 786-0 > 100 µM | EKVX > 100 µM

C[C@@H]1CC2(C[C@@H](C)C3[C@@H](CC4(C)CCCC5C6=CC(O)(CC[C@]34C)OC6=CC(=O)OC5(C)C)O2)OC1=O (stereo partly specified)
inactive: UACC-62 > 100 µM | SNB-19 > 100 µM | SK-MEL-28 > 100 µM | LOX IMVI > 100 µM | UO-31 > 100 µM | HCC 2998 > 100 µM | SK-MEL-5 > 100 µM | MOLT-4 > 100 µM | IGROV-1 > 100 µM | SN12C > 100 µM | A549 > 100 µM | 786-0 > 100 µM

OCC1O[C@H](O[C@@H]2CCCN3CC(O)C(O)[C@@H]23)C(O)C(O)C1O (stereo partly specified)
inactive: UACC-62 > 100 µM | SK-MEL-28 > 100 µM | CAKI-1 > 100 µM | UO-31 > 100 µM | CCRF-CEM > 100 µM | HCC 2998 > 100 µM | SK-MEL-5 > 100 µM | MOLT-4 > 100 µM | IGROV-1 > 100 µM | SN12C > 100 µM | A549 > 100 µM | EKVX > 100 µM

COC[C@@H]1Cc2cc(OC)c3c(c2[C@H](c2ccc(OC)c(OC)c2)[C@H]1COC)OCO3 [HYPOPHYLLANTHIN]
inactive: UACC-62 > 100 µM | SNB-19 > 100 µM | SK-MEL-28 > 100 µM | LOX IMVI > 100 µM | UO-31 70.1 µM | NCI-H460 > 100 µM | CCRF-CEM > 100 µM | HCC 2998 > 100 µM | SK-MEL-5 > 10 µM | MOLT-4 > 100 µM | IGROV-1 > 100 µM | SN12C > 100 µM | A549 69.8 µM | EKVX > 100 µM
